This note sets out measurements from ChEMBL document CHEMBL3351957, “Synthesis and pharmacological evaluation of optically pure, novel carbonyl guanidine derivatives as dual 5-HT2B and 5-HT7 receptor antagonists” (Bioorg Med Chem, 2014).

In test [1] the target is T1, 5-hydroxytryptamine receptor 2B (Homo sapiens, UniProt P41595). Briefly: Displacement of [3H]mesulergine from human 5-HT2B receptor expressed in HEK293 cells. Type of test: cell-based. In general terms: In a radioligand displacement assay an active substance lowers the binding of a labelled ligand.
Test [2] concerns Cavia porcellus. The test is described as follows: Suppression of 5-HT-induced dural protein extravasation in po dosed Hartley guinea pig. Type of test: functional, organism-based.
Test [3] has as its system Cavia porcellus. Briefly: Suppression of 5-HT-induced dural protein extravasation in Hartley guinea pig at 10 mg/kg, po. Type of test: functional, organism-based. Further details: dose 10 mg/kg.
In test [4] the target is T1, 5-hydroxytryptamine receptor 2B. Briefly: Antagonist activity at human 5-HT2B receptor expressed in HEK293 cells assessed as [3H]PI metabolism. Type of test: cell-based.
The target in test [5] is 5-hydroxytryptamine receptor 7 (Homo sapiens, UniProt P34969). The test is described as follows: Displacement of [3H]5-HT from human 5-HT7 receptor expressed in CHO cells. Type of test: cell-based.
The test system of test [6] is Mus musculus. Briefly: Reversal of 5-CT-induced hypothermic effect in po dosed mouse assessed as minimum effective dose. Type of test: functional. To be noted: for minimal effective dose: read-out: MED.
Test [7] deals with 5-hydroxytryptamine receptor 2A (Homo sapiens, UniProt P28223). The test is described as follows: Binding affinity to serotonin 5-HT2A receptor (unknown origin).
In test [8] the target is T2, Adrenergic receptor alpha-1 (Homo sapiens, UniProt P35348+P25100+P35368).
T2 sequence (P35348 whole entry): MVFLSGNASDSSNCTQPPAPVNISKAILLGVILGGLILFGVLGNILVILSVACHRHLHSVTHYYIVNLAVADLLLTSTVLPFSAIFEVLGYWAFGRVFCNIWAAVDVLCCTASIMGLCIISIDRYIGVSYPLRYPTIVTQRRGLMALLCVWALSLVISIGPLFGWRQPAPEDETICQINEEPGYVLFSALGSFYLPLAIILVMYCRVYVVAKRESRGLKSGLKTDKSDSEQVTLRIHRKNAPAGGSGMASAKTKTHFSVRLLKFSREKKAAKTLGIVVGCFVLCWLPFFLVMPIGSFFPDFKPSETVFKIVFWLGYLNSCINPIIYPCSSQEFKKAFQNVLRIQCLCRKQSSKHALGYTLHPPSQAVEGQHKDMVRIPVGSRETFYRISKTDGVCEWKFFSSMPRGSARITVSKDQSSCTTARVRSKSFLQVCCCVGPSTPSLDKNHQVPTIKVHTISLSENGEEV
T2 sequence (P25100 whole entry): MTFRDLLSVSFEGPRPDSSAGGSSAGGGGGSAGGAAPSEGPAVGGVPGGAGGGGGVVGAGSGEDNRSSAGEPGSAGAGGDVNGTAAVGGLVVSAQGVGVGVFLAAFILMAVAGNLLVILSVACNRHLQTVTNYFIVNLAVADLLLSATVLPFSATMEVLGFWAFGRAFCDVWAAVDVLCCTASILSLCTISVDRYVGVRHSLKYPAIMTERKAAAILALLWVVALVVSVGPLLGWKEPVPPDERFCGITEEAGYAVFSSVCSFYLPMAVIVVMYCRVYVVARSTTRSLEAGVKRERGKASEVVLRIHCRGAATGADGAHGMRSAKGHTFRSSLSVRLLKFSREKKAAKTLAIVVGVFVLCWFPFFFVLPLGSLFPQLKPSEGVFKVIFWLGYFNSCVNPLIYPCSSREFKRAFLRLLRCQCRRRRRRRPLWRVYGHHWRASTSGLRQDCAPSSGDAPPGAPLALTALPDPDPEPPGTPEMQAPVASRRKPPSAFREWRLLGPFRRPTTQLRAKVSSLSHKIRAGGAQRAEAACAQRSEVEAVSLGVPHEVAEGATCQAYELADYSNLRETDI
T2 sequence (P35368 whole entry): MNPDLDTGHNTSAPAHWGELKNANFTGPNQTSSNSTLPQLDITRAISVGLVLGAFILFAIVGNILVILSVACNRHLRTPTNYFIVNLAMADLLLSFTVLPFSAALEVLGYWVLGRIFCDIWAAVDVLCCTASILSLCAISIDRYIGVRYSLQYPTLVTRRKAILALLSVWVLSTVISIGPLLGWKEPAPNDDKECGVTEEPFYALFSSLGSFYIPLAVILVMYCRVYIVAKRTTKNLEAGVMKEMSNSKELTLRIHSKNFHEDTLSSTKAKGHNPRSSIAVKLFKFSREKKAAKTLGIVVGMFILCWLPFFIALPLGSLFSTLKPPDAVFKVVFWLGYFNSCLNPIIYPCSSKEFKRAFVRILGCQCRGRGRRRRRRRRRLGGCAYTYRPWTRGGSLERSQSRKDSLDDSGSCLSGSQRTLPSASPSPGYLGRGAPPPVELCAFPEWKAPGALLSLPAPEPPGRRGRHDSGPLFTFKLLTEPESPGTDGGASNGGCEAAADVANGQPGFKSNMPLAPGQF
The test is described as follows: Binding affinity to alpha1-adrenergic receptor (unknown origin).

Test [9] deals with T3, Muscarinic acetylcholine receptor M5 (Homo sapiens, UniProt P08912).
T3 sequence (P08912 whole entry): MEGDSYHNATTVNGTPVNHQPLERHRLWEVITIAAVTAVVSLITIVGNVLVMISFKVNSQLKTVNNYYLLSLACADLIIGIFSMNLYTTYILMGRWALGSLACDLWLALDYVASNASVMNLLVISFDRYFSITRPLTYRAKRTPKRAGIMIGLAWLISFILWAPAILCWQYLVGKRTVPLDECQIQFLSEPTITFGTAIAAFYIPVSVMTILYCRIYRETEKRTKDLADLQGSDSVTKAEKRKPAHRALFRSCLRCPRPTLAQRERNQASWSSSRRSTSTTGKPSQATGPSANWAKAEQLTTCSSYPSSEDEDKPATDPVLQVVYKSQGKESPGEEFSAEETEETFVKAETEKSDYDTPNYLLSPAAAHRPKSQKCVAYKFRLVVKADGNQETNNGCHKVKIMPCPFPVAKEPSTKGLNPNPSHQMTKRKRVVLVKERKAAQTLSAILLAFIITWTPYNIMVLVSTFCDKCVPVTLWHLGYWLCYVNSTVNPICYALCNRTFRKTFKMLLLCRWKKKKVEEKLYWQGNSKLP
The test is described as follows: Binding affinity to muscarinic M5 receptor (unknown origin).

Test [10] concerns the target D(2) dopamine receptor (Homo sapiens, UniProt P14416). Briefly: Binding affinity to dopamine D2 receptor (unknown origin).
For test [11], the target named is T4, 5-hydroxytryptamine receptor 2C (Homo sapiens, UniProt P28335).
T4 sequence (P28335 whole entry): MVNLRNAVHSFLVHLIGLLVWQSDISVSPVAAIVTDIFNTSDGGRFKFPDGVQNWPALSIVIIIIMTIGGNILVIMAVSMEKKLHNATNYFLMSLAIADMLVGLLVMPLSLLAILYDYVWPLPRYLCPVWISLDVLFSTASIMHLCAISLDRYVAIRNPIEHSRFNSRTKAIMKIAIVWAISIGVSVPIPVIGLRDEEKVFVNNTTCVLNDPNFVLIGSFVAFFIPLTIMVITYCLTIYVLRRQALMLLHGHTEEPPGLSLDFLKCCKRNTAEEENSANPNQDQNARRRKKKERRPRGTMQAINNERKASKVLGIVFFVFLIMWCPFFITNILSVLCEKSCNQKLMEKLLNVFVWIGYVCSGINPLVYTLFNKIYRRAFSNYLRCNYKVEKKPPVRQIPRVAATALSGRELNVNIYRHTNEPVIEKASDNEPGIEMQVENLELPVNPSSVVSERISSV
Briefly: Binding affinity to serotonin 5-HT2C receptor (unknown origin).

Molecules are shown by their SMILES. pIC50, pKi: −log10 of the molar value. Activity calls are given as the source filed them. No cut-off for these calls is given here.

As usually defined, the pKi is −log10 of the Ki, conventionally taken in molar units. Higher therefore signals a low Ki. For orientation: pIC50 means −log10 of the IC50, conventionally taken in molar units. For orientation: Ki means the dissociation constant of the complex between target and ligand, obtained from inhibition or displacement. Higher therefore signals lower affinity.

T1 sequence (P41595 whole entry): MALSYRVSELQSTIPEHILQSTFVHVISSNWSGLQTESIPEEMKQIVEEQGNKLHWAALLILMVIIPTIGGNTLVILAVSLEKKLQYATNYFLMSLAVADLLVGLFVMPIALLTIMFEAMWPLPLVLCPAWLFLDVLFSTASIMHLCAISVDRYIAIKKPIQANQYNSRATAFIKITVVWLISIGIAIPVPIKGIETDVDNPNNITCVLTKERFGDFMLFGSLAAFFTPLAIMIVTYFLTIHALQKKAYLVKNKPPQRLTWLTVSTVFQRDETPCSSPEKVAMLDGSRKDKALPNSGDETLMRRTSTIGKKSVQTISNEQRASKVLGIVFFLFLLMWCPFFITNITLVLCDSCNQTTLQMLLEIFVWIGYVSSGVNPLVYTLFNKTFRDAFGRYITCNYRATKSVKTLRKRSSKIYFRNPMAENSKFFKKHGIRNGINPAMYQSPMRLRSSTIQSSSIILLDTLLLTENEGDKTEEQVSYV
Sequence of 5-hydroxytryptamine receptor 7 (P34969 whole entry): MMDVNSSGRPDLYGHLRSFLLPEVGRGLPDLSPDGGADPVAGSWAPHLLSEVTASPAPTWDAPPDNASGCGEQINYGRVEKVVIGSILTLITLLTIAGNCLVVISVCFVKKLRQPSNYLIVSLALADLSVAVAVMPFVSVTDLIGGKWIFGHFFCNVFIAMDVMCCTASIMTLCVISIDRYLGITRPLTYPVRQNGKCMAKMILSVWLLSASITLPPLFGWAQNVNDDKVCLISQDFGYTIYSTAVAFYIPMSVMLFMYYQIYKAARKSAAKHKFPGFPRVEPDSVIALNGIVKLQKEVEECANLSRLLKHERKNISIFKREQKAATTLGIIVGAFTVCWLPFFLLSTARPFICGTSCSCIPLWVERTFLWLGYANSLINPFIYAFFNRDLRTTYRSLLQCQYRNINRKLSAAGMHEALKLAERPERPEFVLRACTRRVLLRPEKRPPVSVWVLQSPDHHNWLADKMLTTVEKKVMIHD
Sequence of D(2) dopamine receptor (P14416 whole entry): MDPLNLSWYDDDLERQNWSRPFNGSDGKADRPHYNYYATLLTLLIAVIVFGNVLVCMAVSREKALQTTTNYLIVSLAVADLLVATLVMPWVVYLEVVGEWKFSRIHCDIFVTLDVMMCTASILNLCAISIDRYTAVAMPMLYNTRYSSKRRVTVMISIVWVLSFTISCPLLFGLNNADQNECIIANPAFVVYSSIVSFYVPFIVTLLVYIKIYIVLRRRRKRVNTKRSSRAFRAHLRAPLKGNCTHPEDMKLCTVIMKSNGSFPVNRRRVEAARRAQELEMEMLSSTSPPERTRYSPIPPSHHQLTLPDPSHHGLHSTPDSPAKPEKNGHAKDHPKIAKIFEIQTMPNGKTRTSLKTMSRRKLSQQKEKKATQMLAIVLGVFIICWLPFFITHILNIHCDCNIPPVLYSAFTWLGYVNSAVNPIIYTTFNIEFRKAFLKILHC
Sequence of 5-hydroxytryptamine receptor 2A (P28223 whole entry): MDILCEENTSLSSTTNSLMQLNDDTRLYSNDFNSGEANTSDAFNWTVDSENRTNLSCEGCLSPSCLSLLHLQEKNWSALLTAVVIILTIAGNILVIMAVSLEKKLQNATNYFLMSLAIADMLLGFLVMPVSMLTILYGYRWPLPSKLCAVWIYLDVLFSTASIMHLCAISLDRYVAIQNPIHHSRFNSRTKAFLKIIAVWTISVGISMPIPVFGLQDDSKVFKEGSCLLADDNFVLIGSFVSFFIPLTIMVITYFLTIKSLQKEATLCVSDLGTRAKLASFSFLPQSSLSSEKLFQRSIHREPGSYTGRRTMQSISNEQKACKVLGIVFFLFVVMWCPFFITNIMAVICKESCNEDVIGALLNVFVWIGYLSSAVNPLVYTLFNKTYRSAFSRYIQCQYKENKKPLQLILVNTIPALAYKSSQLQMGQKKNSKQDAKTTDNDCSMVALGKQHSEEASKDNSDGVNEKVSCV

In the case of `NC(N)=NC(=O)c1ccc2c(c1)[C@@]1(CCCO1)c1ccccc1-2`, the pKi in test [1] is 8.29. Also, in test [2], the inhibition result was “Dose-dependent effect”. In addition, the inhibition entry in test [3] is “Active”. Further, in [4], the pIC50 was 7.14.

Consider `CCCCC1(O)c2ccccc2-c2ccc(C(=O)N=C(N)N)cc21` (stereo not drawn), for which the pKi was 7.51 in test [1] and less than 7.00 in test [5].

Consider `CCC1(O)c2ccccc2-c2ccc(C(=O)N=C(N)N)cc21` (stereo not drawn), for which the pKi in test [1] was 7.39; in test [5], 8.92.

For `COC1(C)c2ccccc2-c2ccc(C(=O)N=C(N)N)cc21.Cl` (stereo not drawn), the pKi in [1] was 8.48; in [5], 8.85. Moreover, in test [6], the minimal effective dose is 30 mg/kg.

On to `Cl.NC(N)=NC(=O)c1ccc2c(c1)C1(CCCC1)c1ccccc1-2`, for which the values for the pKi in test [1] and in [5] were 8.77 and 8.74, respectively. The minimal effective dose in test [6] was not above 100 mg/kg.

In turn, `NC(N)=NC(=O)c1ccc2c(c1)[C@]1(CCCO1)c1ccccc1-2` showed a pKi in test [1] of 8.57. The inhibition result in test [2] is “Dose-dependent effect”. The inhibition result in [3] is “Active”. Further, in test [4], the negative-log IC50 (pIC50) is 7.46.

For the compound `Cl.NC(N)=NC(=O)c1ccc2c(c1)C1(CCCO1)c1ccccc1-2` (stereo not drawn), the pKi was 8.29 in test [1]; less than 6.00 in test [7]; less than 6.00 in test [9]; less than 6.00 in test [10]; 6.82 in test [11]. In addition, the minimal effective dose in test [6] amounted to 3 mg/kg. In test [8], this compound came in with a Ki of more than 1000 nM. For the same compound, the pIC50 in test [4] was 7.26.

As to `CC1(O)c2ccccc2-c2ccc(C(=O)N=C(N)N)cc21.Cl` (stereo not drawn), the minimal effective dose in [6] came to 30 mg/kg.

For `NC(N)=NC(=O)c1ccc2c(c1)C1(CCOCC1)c1ccccc1-2`, the figures for the pKi in [1] and in test [5] were 8.04 and 8.89, respectively.

With `CCC1(OC)c2ccccc2-c2ccc(C(=O)N=C(N)N)cc21.Cl` (stereo not drawn), the pKi is 8.32 in test [1] and 9.22 in test [5]. Also, in test [6], the minimal effective dose worked out at 10 mg/kg.

`COCC1(OC)c2ccccc2-c2ccc(C(=O)N=C(N)N)cc21.Cl` (stereo not drawn): the pKi is 8.70 in test [1] and 9.12 in test [5]. Further, the minimal effective dose in [6] was more than 30 mg/kg.

Consider `NC(N)=NC(=O)c1ccc2c(c1)C1(CC1)c1ccccc1-2`, for which the pKi in [1] is 9.29; in test [5] it was 8.31. Moreover, in test [6], the MED entry is “inactive”.
